Measured values taken from ChEMBL document CHEMBL4145592, “Synthesis of Phosphatidylserine and Its Stereoisomers: Their Role in Activation of Blood Coagulation” (ACS Med Chem Lett, 2018).
Active and inactive are the calls of the source. The rule behind the calls is not given here.

Tests used:
[1] = target: T1, Coagulation factor VII/tissue factor (Homo sapiens) (UniProt P08709+P13726); test: (§1) Activation of full length recombinant human His-tagged tissue factor expressed in Escherichia coli BL21(DE3)/recombinant factor 7a (unknown origin) assessed as induction of coagulant factor-10a production using S-2765 as substrate measured for 2 mins in presence of phosphatidylcholine by colorimetric method relative to phosphatidylcholine alone
[2] = target: T1, Coagulation factor VII/tissue factor (Homo sapiens); test: as §1, with “method” for “method relative to phosphatidylcholine alone”

| Structure (SMILES) | fold change (FC) [1] | Activity [2] |
| --- | --- | --- |
| CCCCCCCC/C=C\CCCCCCCC(=O)OC[C@H](COP(=O)(O)OC[C@H](N)C(=O)O)OC(=O)CCCCCCC/C=C\CCCCCCCC | 6 | – |
| CCCCCCCC/C=C\CCCCCCCC(=O)OC[C@@H](COP(=O)(O)OC[C@H](N)C(=O)O)OC(=O)CCCCCCC/C=C\CCCCCCCC | 2 | – |
| CCCCCCCC/C=C\CCCCCCCC(=O)OC[C@H](COP(=O)(O)OC[C@@H](N)C(=O)O)OC(=O)CCCCCCC/C=C\CCCCCCCC | – | Active |
| CCCCCCCC/C=C\CCCCCCCC(=O)OC[C@@H](COP(=O)(O)OC[C@@H](N)C(=O)O)OC(=O)CCCCCCC/C=C\CCCCCCCC | – | inactive |
